From US9133262B2, “Somatostatin antagonists” (Ipsen Pharma S.A.S., priority 1996, dated 2015)
Positions of bridges follow the written chain, without caps; N, C: chain ends. Non-standard residues stand in square brackets, D forms with d. Residues, ends and D or L forms follow the SMILES beside them. Phe(F5) = N[C@@H](Cc1c(F)c(F)c(F)c(F)c1F)C(=O)O; dDip = N[C@@H](C(=O)O)C(c1ccccc1)c1ccccc1; dPhe(4-Cl) = N[C@H](Cc1ccc(Cl)cc1)C(=O)O; Dip = N[C@H](C(=O)O)C(c1ccccc1)c1ccccc1; Phe(4-F) = N[C@@H](Cc1ccc(F)cc1)C(=O)O; dPhe(4-F) = N[C@H](Cc1ccc(F)cc1)C(=O)O; 2Nal = N[C@@H](Cc1ccc2ccccc2c1)C(=O)O; d2Nal = N[C@H](Cc1ccc2ccccc2c1)C(=O)O; 2Pal = N[C@@H](Cc1ccccn1)C(=O)O; 3Pal = N[C@@H](Cc1cccnc1)C(=O)O; Tle = CC(C)(C)[C@H](N)C(=O)O; Nle = CCCC[C@H](N)C(=O)O

What follows are compounds tested on rat pituitary cells. Details: 3 h.
Assay type: cell-based
From the text: Bioassay on the In Vitro Release of Growth Hormone
(a) Rat Pituitary Cell Dispersion
Pituitaries from adult Charles River CD male rats (Wilmington, Mass.) housed under controlled conditions were dispersed and cultured using aseptic technique by modification of previously described methods (Hoefer, M. T., et al., Mol. Cell. Endocrinol. 35:229 (1984); Ben-Jonathan, N., et al., Methods Enzymol. 103:249 (1983); and Heiman, M. L., et al., Endocrinology 116:410 (1985)). Pituitaries were removed from sacrificed rats, sectioned, and then placed into a siliconized, liquid scintillation vial containing 2 ml 0.2% trypsin (Worthington Biochemicals, Freehold, N.J.) in sterile-filtered Krebs-Ringer bicarbonate buffer supplemented with 1% bovine serum albumin, 14 mM glucose, modified Eagle medium (MEM) vitamin solution, and MEM amino acids (Gibco Laboratories, Grand Island, N.Y.) (KRBGA). All glassware was siliconized as described by Sayers, et al., Endocrinology 88:1063 (1971). The fragments were incubated in a water bath for 35 min at 37° C. with agitation. The vial contents then were poured into a scintillation vial containing 2 ml 0.1% DNase (Sigma Chemical Co., St. Louis, Mo.) in KRBGA and incubated for 2 min at 37° C. with agitation. After incubation, the tissue was decanted into a 15 ml centrifuge tube and allowed to settle. Medium was discarded, and pituitary sections were washed 3 times with 1 ml fresh-KRBGA. The cells were then dispersed in 2 ml 0.05% LBI (lima bean trypsin inhibitor, Worthington Biochemicals) by gently drawing the fragments into and expelling them out of a siliconized, fire polished Pasteur pipette. Dispersed cells were then filtered through a 630 μm diameter Nylon mesh (Tetko, Elmsford, N.Y.) into a fresh 15 ml centrifuge tube. An additional 2 ml of 0.05% LBI solution was used to rinse the first tube and was transferred to the second tube with filtering.
The dispersed cells were then further diluted with approximately 15 ml sterile-filtered Dulbecco's modified Eagle medium (GIBCO), which was supplemented with 2.5% fetal calf serum (GIBCO), 3% horse serum (GIBCO), 10% fresh rat serum (stored on ice for no longer than 1 hr) from the pituitary donors, 1% MEM non-essential amino acids (GIBCO), and gentamycin (10 ng/ml; Sigma) and nystatin (10,000 U/ml; GIBCO). The cells were poured into a 50 ml round-bottomed glass extraction flask with a large diameter opening and then randomly plated at a density of approximately 200,000 cells per well (Co-star cluster 24; Rochester Scientific Co., Rochester, N.Y.). The plated cells were maintained in the above Dulbecco's medium in a humidified atmosphere of 95% air and 5% CO2 at 37° C. for 4-5 days.
(c) Experimental Incubation and IC50 Determination
In preparation for a hormone challenge, the cells were washed 3 times with medium 199 (GIBCO) to remove old medium and floating cells. Each treatment well contained a total volume of 1 ml medium 199 containing 1% BSA (fraction V; Sigma) with treatments as described below. Each antagonist candidate was tested using a single 24-well cell culture plate. Each treatment was performed in triplicate. Each plate contained 8 treatment groups: one 1 nM growth hormone releasing factor (GRF) (1-29)NH2-stimulated control group; one 1 nM somatostatin-inhibited control group in the presence of 1 nM GRF(1-29)NH2; and 6 doses of a given antagonist in the presence of both 1 nM SRIF and 1 nM GRF per plate. After 3 hrs at 37° C. in a air/carbon dioxide atmosphere (95/5%), the medium was removed and stored at −20° C. until radioimmunoassayed for growth hormone content. IC50's of each antagonist versus 1 nM SRIF were calculated using a computer program (SigmaPlot, Jandel Scientific, San Rafael, Calif.) with the maximum response constrained to the value of the 1 nM GRF(1-29)NH2-stimulated control.

| SMILES | IC50 [nM] |
| --- | --- |
| CC(C)[C@@H]1NC(=O)[C@H](CCCCN)NC(=O)[C@@H](Cc2c[nH]c3ccccc23)NC(=O)[C@H](Cc2ccccn2)NC(=O)[C@H](NC(=O)[C@@H](N)Cc2c(F)c(F)c(F)c(F)c2F)CSSC[C@@H](C(=O)N[C@@H](Cc2c(F)c(F)c(F)c(F)c2F)C(N)=O)NC1=O [Analog No. 17, H2—F5-Phe-D-Cys-2-Pal-D-Trp-Lys-Val-Cys-F5-Phe-NH2] (H-[Phe(F5)][dC][2Pal][dW]KVC[Phe(F5)]-NH2; disulfide 2-7) | 1000 |
| CC(C)[C@@H]1NC(=O)[C@H](CCCCN)NC(=O)[C@@H](Cc2c[nH]c3ccccc23)NC(=O)[C@H](Cc2cccnc2)NC(=O)[C@H](NC(=O)[C@H](N)C(c2ccccc2)c2ccccc2)CSSC[C@@H](C(=O)N[C@@H](Cc2ccc3ccccc3c2)C(N)=O)NC1=O [Analog No. 18, H2-D-Dip-D-Cys-Pal-D-Trp-Lys-Val-Cys-β-Nal-NH2] (H-[dDip][dC][3Pal][dW]KVC[2Nal]-NH2; disulfide 2-7) | 380 |
| CC(C)[C@@H]1NC(=O)[C@H](CCCCN)NC(=O)[C@@H](Cc2c[nH]c3ccccc23)NC(=O)[C@H](Cc2c[nH]cn2)NC(=O)[C@H](NC(=O)[C@@H](N)Cc2ccc3ccccc3c2)CSSC[C@@H](C(=O)N[C@@H](C(N)=O)C(c2ccccc2)c2ccccc2)NC1=O [Analog No. 19, H2-β-Nal-D-Cys-His-D-Trp-Lys-Val-Cys-D-Dip-NH2] (H-[2Nal][dC]H[dW]KVC[dDip]-NH2; disulfide 2-7) | 110 |
| CC(C)[C@@H]1NC(=O)[C@H](CCCCN)NC(=O)[C@@H](Cc2c[nH]c3ccccc23)NC(=O)[C@H](Cc2c[nH]cn2)NC(=O)[C@H](NC(=O)[C@@H](N)C(c2ccccc2)c2ccccc2)CSSC[C@@H](C(=O)N[C@@H](Cc2ccc3ccccc3c2)C(N)=O)NC1=O [Analog No. 20, H2-Dip-D-Cys-His-D-Trp-Lys-Val-Cys-β-Nal-NH2] (H-[Dip][dC]H[dW]KVC[2Nal]-NH2; disulfide 2-7) | 120 |
| CC(C)[C@@H]1NC(=O)[C@H](CCCCN)NC(=O)[C@@H](Cc2c[nH]c3ccccc23)NC(=O)[C@H](Cc2c[nH]cn2)NC(=O)[C@H](NC(=O)[C@@H](N)C(c2ccccc2)c2ccccc2)CSSC[C@@H](C(=O)N[C@H](C(N)=O)C(c2ccccc2)c2ccccc2)NC1=O [Analog No. 21, H2-Dip-D-Cys-His-D-Trp-Lys-Val-Cys-Dip-NH2] (H-[Dip][dC]H[dW]KVC[Dip]-NH2; disulfide 2-7) | 970 |
| CC(C)[C@@H]1NC(=O)[C@H](CCCCN)NC(=O)[C@@H](Cc2c[nH]c3ccccc23)NC(=O)[C@H](Cc2c[nH]cn2)NC(=O)[C@H](NC(=O)[C@@H](N)Cc2ccc3ccccc3c2)CSSC[C@@H](C(=O)N[C@@H](Cc2ccc3ccccc3c2)C(N)=O)NC1=O [Analog No. 22, H2-β-Nal-D-Cys-His-D-Trp-Lys-Val-Cys-β-Nal-NH2] (H-[2Nal][dC]H[dW]KVC[2Nal]-NH2; disulfide 2-7) | 66 |
| CC(C)[C@H](NC(=O)[C@H](CCCCN)NC(=O)[C@@H](Cc1c[nH]c2ccccc12)NC(=O)[C@H](Cc1ccc(O)cc1)NC(=O)[C@@H](Cc1ccc(Cl)cc1)NC(=O)[C@@H](N)Cc1ccc2ccccc2c1)C(=O)N[C@@H](Cc1ccccc1)C(=O)N[C@@H](Cc1ccc2ccccc2c1)C(N)=O [Analog No. 23, H2-β-Nal-D-Cpa-Tyr-D-Trp-Lys-Val-Phe-β-Nal-NH2] (H-[2Nal][dPhe(4-Cl)]Y[dW]KVF[2Nal]-NH2) | 910 |
| CC(C)[C@@H]1NC(=O)[C@H](CCCCN)NC(=O)[C@@H](Cc2c[nH]c3ccccc23)NC(=O)[C@H](Cc2cccnc2)NC(=O)[C@H](NC(=O)[C@H](N)Cc2ccc(F)cc2)CSSC[C@@H](C(=O)N[C@H](Cc2ccc(F)cc2)C(N)=O)NC1=O [Analog No. 27, H2-D-p-F-Phe-D-Cys-Pal-D-Trp-Lys-Val-Cys-D-p-F-Phe-NH2] (H-[dPhe(4-F)][dC][3Pal][dW]KVC[dPhe(4-F)]-NH2; disulfide 2-7) | 41 |
| CC(C)[C@@H]1NC(=O)[C@H](CCCCN)NC(=O)[C@@H](Cc2c[nH]c3ccccc23)NC(=O)[C@H](Cc2cccnc2)NC(=O)[C@H](NC(=O)[C@@H](N)Cc2ccc3ccccc3c2)CSSC[C@@H](C(=O)N[C@H](Cc2ccc(F)cc2)C(N)=O)NC1=O [Analog No. 28, H2-β-Nal-D-Cys-Pal-D-Trp-Lys-Val-Cys-D-p-F-Phe-NH2] (H-[2Nal][dC][3Pal][dW]KVC[dPhe(4-F)]-NH2; disulfide 2-7) | 100 |
| CC(C)(C)[C@@H]1NC(=O)[C@H](CCCCN)NC(=O)[C@@H](Cc2c[nH]c3ccccc23)NC(=O)[C@H](Cc2cccnc2)NC(=O)[C@H](NC(=O)[C@@H](N)Cc2ccc3ccccc3c2)CSSC[C@@H](C(=O)N[C@@H](Cc2ccc3ccccc3c2)C(N)=O)NC1=O [Analog No. 29, H2-β-Nal-D-Cys-Pal-D-Trp-Lys-Tle-Cys-β-Nal-NH2] (H-[2Nal][dC][3Pal][dW]K[Tle]C[2Nal]-NH2; disulfide 2-7) | 8.4 |
| CC(C)[C@@H]1NC(=O)[C@H](CCCCN)NC(=O)[C@@H](Cc2c[nH]c3ccccc23)NC(=O)[C@H](Cc2cccnc2)NC(=O)[C@H](NC(=O)[C@@H](N)Cc2ccc(F)cc2)CSSC[C@@H](C(=O)N[C@@H](Cc2ccc3ccccc3c2)C(N)=O)NC1=O [Analog No. 30, H2-p-F-Phe-D-Cys-Pal-D-Trp-Lys-Val-Cys-β-Nal-NH2] (H-[Phe(4-F)][dC][3Pal][dW]KVC[2Nal]-NH2; disulfide 2-7) | 6.5 |
| CCCC[C@@H]1NC(=O)[C@H](CCCCN)NC(=O)[C@@H](Cc2c[nH]c3ccccc23)NC(=O)[C@H](Cc2cccnc2)NC(=O)[C@H](NC(=O)[C@@H](N)Cc2ccc3ccccc3c2)CSSC[C@@H](C(=O)N[C@@H](Cc2ccc3ccccc3c2)C(N)=O)NC1=O [Analog No. 31, H2-β-Nal-D-Cys-Pal-D-Trp-Lys-Nle-Cys-β-Nal-NH2] (H-[2Nal][dC][3Pal][dW]K[Nle]C[2Nal]-NH2; disulfide 2-7) | 3.8 |
| CC[C@H](C)[C@@H]1NC(=O)[C@H](CCCCN)NC(=O)[C@@H](Cc2c[nH]c3ccccc23)NC(=O)[C@H](Cc2cccnc2)NC(=O)[C@H](NC(=O)[C@@H](N)Cc2ccc3ccccc3c2)CSSC[C@@H](C(=O)N[C@@H](Cc2ccc3ccccc3c2)C(N)=O)NC1=O [Analog No. 32, H2-β-Nal-D-Cys-Pal-D-Trp-Lys-Ile-Cys-β-Nal-NH4] (H-[2Nal][dC][3Pal][dW]KIC[2Nal]-NH2; disulfide 2-7) | 12 |

Same assay, conditions: cultured rat pituitary cells; 1 nM SRIF and 1 nM GRF(1-29)NH2; 3 hrs at 37° C.; growth hormone by radioimmunoassay; read-out: IC50 of antagonist versus 1 nM SRIF (growth hormone release)

| SMILES | IC50 [nM] |
| --- | --- |
| CC(C)[C@@H]1NC(=O)[C@H](CCCCN)NC(=O)[C@@H](Cc2c[nH]c3ccccc23)NC(=O)[C@H](Cc2ccc(O)cc2)NC(=O)[C@H](NC(=O)[C@@H](N)Cc2c[nH]c3ccccc23)CSSC[C@@H](C(=O)N[C@H](Cc2ccc3ccccc3c2)C(N)=O)NC1=O [Analog No. 24, H2-Trp-D-Cys-Tyr-D-Trp-Lys-Val-Cys-D-β-Nal-NH2] (H-W[dC]Y[dW]KVC[d2Nal]-NH2; disulfide 2-7) | 68 |
| CC(C)[C@@H]1NC(=O)[C@H](CCCCN)NC(=O)[C@@H](Cc2c[nH]c3ccccc23)NC(=O)[C@H](Cc2ccc(O)cc2)NC(=O)[C@H](NC(=O)[C@@H](N)Cc2ccc3ccccc3c2)CSSC[C@@H](C(=O)N[C@H](Cc2ccc3ccccc3c2)C(N)=O)NC1=O [Analog No. 25, H2-β-Nal-D-Cys-Tyr-D-Trp-Lys-Val-Cys-D-β-Nal-NH2] (H-[2Nal][dC]Y[dW]KVC[d2Nal]-NH2; disulfide 2-7) | 280 |
| CC(C)[C@@H]1NC(=O)[C@H](CCCCN)NC(=O)[C@@H](Cc2c[nH]c3ccccc23)NC(=O)[C@H](Cc2ccc(O)cc2)NC(=O)[C@H](NC(=O)[C@H](N)Cc2ccc3ccccc3c2)CSSC[C@@H](C(=O)N[C@H](Cc2ccc3ccccc3c2)C(N)=O)NC1=O [Analog No. 26, H2-D-β-Nal-D-Cys-Tyr-D-Trp-Lys-Val-Cys-D-β-Nal-NH2] (H-[d2Nal][dC]Y[dW]KVC[d2Nal]-NH2; disulfide 2-7) | 380 |
